Patent US6914045B2, “Glycopeptide antibiotics” (Wyeth Holdings Corporation, priority 2001, dated 2005)
Values after ≈ are worked out from the molar mass of the structure shown.

How the values were obtained:
Assay in all cases: in vitro antibacterial evaluation, MIC by broth dilution
Assay type in all cases: cell-based
[1] = test system: Enterococcus sp.; details: broth dilution, 18 hours at 35° C.
In short: (§1)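 MIC = lowest antibiotic concentration preventing visible growth; inoculum 5×10^5 CFU/mL; drug range 64-0.06 μg/mL; Muller-Hinton II […]; NCCLS M7-A2 guidance.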

[2] = test system: Escherichia coli; details: 18 hours at 35° C.
In short: as §1

[3] = test system: Staphylococcus sp.; details: broth dilution, 18 hours at 35° C.
In short: as §1

[4] = test system: Streptococcus sp.; details: broth dilution, 18 hours at 35° C.
In short: as §1

- MIC Enterococcus avium (GC 4558) ([1]; Enterococcus avium (GC 4558)): 16 µg/mL (≈ 9.69 µM)
- MIC Enterococcus faecalis (ATCC 29212) ([1]; Enterococcus faecalis (ATCC 29212)): 32 µg/mL (≈ 19.4 µM)
- MIC Enterococcus faecalis (GC 2242) ([1]; Enterococcus faecalis (GC 2242)): 32 µg/mL (≈ 19.4 µM)
- MIC Enterococcus faecalis (GC 2691) ([1]; Enterococcus faecalis (GC 2691)): 32 µg/mL (≈ 19.4 µM)
- MIC Enterococcus faecalis (GC 3059) ([1]; Enterococcus faecalis (GC 3059)): 64 µg/mL (≈ 38.7 µM)
- MIC Enterococcus faecalis (GC 4552) ([1]; Enterococcus faecalis (GC 4552)): 32 µg/mL (≈ 19.4 µM)
- MIC Enterococcus faecalis (GC 4553) ([1]; Enterococcus faecalis (GC 4553)): 8 µg/mL (≈ 4.84 µM)
- MIC Enterococcus faecalis (GC 4554) ([1]; Enterococcus faecalis (GC 4554)): 32 µg/mL (≈ 19.4 µM)
- MIC Enterococcus faecalis (GC 6189) ([1]; Enterococcus faecalis (GC 6189)): 32 µg/mL (≈ 19.4 µM)
- MIC Enterococcus faecium (GC 2243) ([1]; Enterococcus faecium (GC 2243)): 8 µg/mL (≈ 4.84 µM)
- MIC Enterococcus faecium (GC 4556) ([1]; Enterococcus faecium (GC 4556)): 64 µg/mL (≈ 38.7 µM)
- MIC Enterococcus faecium (GC 4557) ([1]; Enterococcus faecium (GC 4557)): 32 µg/mL (≈ 19.4 µM)
- MIC Enterococcus faecalis (ATCC 29212) ([1]; strain ATCC 29212): 32 µg/mL (≈ 19.4 µM)
- MIC Enterococcus faecalis (GC 2242) ([1]; strain GC 2242): 32 µg/mL (≈ 19.4 µM)
- MIC Enterococcus faecium (GC 2243) ([1]; strain GC 2243): 8 µg/mL (≈ 4.84 µM)
- MIC Enterococcus faecalis (GC 2691) ([1]; strain GC 2691): 32 µg/mL (≈ 19.4 µM)
- MIC Enterococcus faecalis (GC 3059) ([1]; strain GC 3059): 64 µg/mL (≈ 38.7 µM)
- MIC Enterococcus faecalis (GC 4552) ([1]; strain GC 4552): 32 µg/mL (≈ 19.4 µM)
- MIC Enterococcus faecalis (GC 4553) ([1]; strain GC 4553): 8 µg/mL (≈ 4.84 µM)
- MIC Enterococcus faecalis (GC 4554) ([1]; strain GC 4554): 32 µg/mL (≈ 19.4 µM)
- MIC Enterococcus faecium (GC 4556) ([1]; strain GC 4556): 64 µg/mL (≈ 38.7 µM)
- MIC Enterococcus faecium (GC 4557) ([1]; strain GC 4557): 32 µg/mL (≈ 19.4 µM)
- MIC Enterococcus avium (GC 4558) ([1]; strain GC 4558): 16 µg/mL (≈ 9.69 µM)
- MIC Enterococcus faecalis (GC 6189) ([1]; strain GC 6189): 32 µg/mL (≈ 19.4 µM)
- MIC Escherichia coli (ATCC 25922) ([2]; strain ATCC 25922): >64 µg/mL
- MIC Escherichia coli (GC 4559) ([2]; strain GC 4559): >64 µg/mL
- MIC Escherichia coli (GC 4560) ([2]; strain GC 4560): 64 µg/mL (≈ 38.7 µM)
- MIC Staphylococcus aureus (ATCC 29213) [3]: 32 µg/mL (≈ 19.4 µM)
- MIC Staphylococcus aureus (GC 1131) [3]: 32 µg/mL (≈ 19.4 µM)
- MIC Staphylococcus aureus (GC 3051) [3]: 32 µg/mL (≈ 19.4 µM)
- MIC Staphylococcus aureus (GC 3053) [3]: 32 µg/mL (≈ 19.4 µM)
- MIC Staphylococcus aureus (GC 4541) [3]: 32 µg/mL (≈ 19.4 µM)
- MIC Staphylococcus aureus (GC 4542) [3]: 32 µg/mL (≈ 19.4 µM)
- MIC Staphylococcus aureus (GC 4544) [3]: 32 µg/mL (≈ 19.4 µM)
- MIC Staphylococcus aureus (GC 4545) [3]: 32 µg/mL (≈ 19.4 µM)
- MIC Staphylococcus aureus (GC 1131) ([3]; inoculum 5×10^5 CFU/mL, strain GC 1131): 32 µg/mL (≈ 19.4 µM)
- MIC Staphylococcus aureus (ATCC 29213) ([3]; strain ATCC 29213): 32 µg/mL (≈ 19.4 µM)
- MIC Staphylococcus aureus (GC 3051) ([3]; strain GC 3051): 32 µg/mL (≈ 19.4 µM)
- MIC Staphylococcus aureus (GC 3053) ([3]; strain GC 3053): 32 µg/mL (≈ 19.4 µM)
- MIC Staphylococcus aureus (GC 4541) ([3]; strain GC 4541): 32 µg/mL (≈ 19.4 µM)
- MIC Staphylococcus aureus (GC 4542) ([3]; strain GC 4542): 32 µg/mL (≈ 19.4 µM)
- MIC Staphylococcus aureus-SMITH (GC 4543) ([3]; strain GC 4543): 32 µg/mL (≈ 19.4 µM)
- MIC Staphylococcus aureus (GC 4544) ([3]; strain GC 4544): 32 µg/mL (≈ 19.4 µM)
- MIC Staphylococcus aureus (GC 4545) ([3]; strain GC 4545): 32 µg/mL (≈ 19.4 µM)
- MIC Coagulase Negative Staphylococcus (GC 4547) ([3]; strain GC 4547): 32 µg/mL (≈ 19.4 µM)
- MIC Coagulase Negative Staphylococcus (GC 4548) ([3]; strain GC 4548): 32 µg/mL (≈ 19.4 µM)
- MIC Coagulase Negative Staphylococcus (GC 4549) ([3]; strain GC 4549): 16 µg/mL (≈ 9.69 µM)
- MIC Coagulase Negative Staphylococcus (GC 4551) ([3]; strain GC 4551): 32 µg/mL (≈ 19.4 µM)
- MIC Coagulase Negative Staphylococcus (GC 6257) ([3]; strain GC 6257): 32 µg/mL (≈ 19.4 µM)
- MIC Staphylococcus aureus-SMITH (GC 4543) ([3]; strain SMITH GC 4543): 32 µg/mL (≈ 19.4 µM)
- MIC Streptococcus agalactiae (GC 4564) ([4]; Streptococcus agalactiae (GC 4564)): 8 µg/mL (≈ 4.84 µM)
- MIC Streptococcus pneumoniae (ATCC 6301) ([4]; Streptococcus pneumoniae (ATCC 6301)): 8 µg/mL (≈ 4.84 µM)
- MIC Streptococcus pneumoniae (GC 1894) ([4]; Streptococcus pneumoniae (GC 1894)): 1 µg/mL (≈ 0.605 µM)
- MIC Streptococcus pneumoniae (GC 4565) ([4]; Streptococcus pneumoniae (GC 4565)): 4 µg/mL (≈ 2.42 µM)
- MIC Streptococcus pyogenes (GC 4563) ([4]; Streptococcus pyogenes (GC 4563)): 16 µg/mL (≈ 9.69 µM)
- MIC Streptococcus pneumoniae (ATCC 6301) ([4]; strain ATCC 6301): 8 µg/mL (≈ 4.84 µM)
- MIC Streptococcus pneumoniae (GC 1894) ([4]; strain GC 1894): 1 µg/mL (≈ 0.605 µM)
- MIC Streptococcus pyogenes (GC 4563) ([4]; strain GC 4563): 16 µg/mL (≈ 9.69 µM)
- MIC Streptococcus agalactiae (GC 4564) ([4]; strain GC 4564): 8 µg/mL (≈ 4.84 µM)
- MIC Streptococcus pneumoniae (GC 4565) ([4]; strain GC 4565): 4 µg/mL (≈ 2.42 µM)
Structure (SMILES): COC1CCC2(C)C(CCC3C2CCC2(C)C(C(C)CCC4OCC5OC(OC6C(CO)OC(Oc7ccc(CC8NC(=O)C(C(C)c9ccccc9)NC(=O)CNC(=O)C(CO)NC(=O)C(C(O)C9CNC(=N)N9C9OC(CO)C(O)C(O)C9O)NC(=O)C(C(O)C9CNC(=N)N9)NC8=O)cc7)C(O)C6O)C(O)C(O)C5O4)CCC32)C1 (stereo not shown) [Example 130]
- MIC Staphylococcus haemolyticus (GC 4546) ([3]; strain GC 4546): 32 µg/mL (≈ 19.4 µM)
